From paper PMC5218480 (PLoS ONE, 2017) come the findings set out here.

For the test, the system named is MV-4-11 cells. As to the kind of experiment: Gene expression microarray analysis (Affymetrix PrimeView) and GSEA. To be noted: ProbeSet 11717308_a_at; LIST B. Also noted: RFU PODN (11730768_x_at) / Fold change /veh PODN (11730768_x_at) / RFU LINC00158 (11744669_a_at) / Fold change /veh LINC00158 (11744669_a_at) / RFU DUSP10 (11751237_a_at) / Fold change /veh DUSP10 (11751237_a_at) / RFU ID3 (11757404_x_at) / Fold change /veh ID3 (11757404_x_at) / RFU PLEKHG5 (11737974_s_at) / Fold change /veh PLEKHG5 (11737974_s_at) / RFU LRRC4B (11730491_at) / Fold change /veh LRRC4B (11730491_at) / RFU GIMAP4 (11747438_a_at) / Fold change /veh GIMAP4 (11747438_a_at) / RFU KRT8 (11758183_x_at) / Fold change /veh KRT8 (11758183_x_at) / RFU CNN1 (11734310_a_at) / Fold change /veh CNN1 (11734310_a_at) / RFU VPS37D (11726825_at) / Fold change /veh VPS37D (11726825_at) / RFU C10orf10 (11716522_x_at) / Fold change /veh C10orf10 (11716522_x_at) / RFU KIR2DL2 /// KIR2DL4 /// KIR2DL5A /// KIR2DL5B /// KIR2DS1 /// KIR2DS2 /// KIR2DS3 /// KIR2DS4 /// KIR3DL3 /// KIR3DL3 /// KIR3DS1 (11738374_at) / Fold change /veh KIR2DL2 /// KIR2DL4 /// KIR2DL5A /// KIR2DL5B /// KIR2DS1 /// KIR2DS2 /// KIR2DS3 /// KIR2DS4 /// KIR3DL3 /// KIR3DL3 /// KIR3DS1 (11738374_at) / RFU C1QL1 (11718748_at) / Fold change /veh C1QL1 (11718748_at) / RFU TMPRSS4 (11747572_a_at) / Fold change /veh TMPRSS4 (11747572_a_at) / RFU HAMP (11756126_x_at) / Fold change /veh HAMP (11756126_x_at) / RFU RNFT2 (11725882_a_at) / Fold change /veh RNFT2 (11725882_a_at) / RFU NR4A2 (11747474_a_at) / Fold change /veh NR4A2 (11747474_a_at) / RFU ABCC12 (11746883_a_at) / Fold change /veh ABCC12 (11746883_a_at) / RFU TMEM136 (11760407_x_at) / Fold change /veh TMEM136 (11760407_x_at) / RFU CLDN22 /// WWC2 (11732394_at) / Fold change /veh CLDN22 /// WWC2 (11732394_at) / RFU HLA-DPB1 (11760878_x_at) / Fold change /veh HLA-DPB1 (11760878_x_at) / RFU SPINT1 (11716480_a_at) / Fold change /veh SPINT1 (11716480_a_at) / RFU GAP43 (11754022_s_at) / Fold change /veh GAP43 (11754022_s_at) / RFU A4GNT (11735810_at) / Fold change /veh A4GNT (11735810_at) / RFU PRB3 (11715151_x_at) / Fold change /veh PRB3 (11715151_x_at) / RFU TUBB4B (11761932_at) / Fold change /veh TUBB4B (11761932_at) / RFU CAPN14 (11732068_a_at) / Fold change /veh CAPN14 (11732068_a_at) / RFU TMCC2 (11721928_a_at) / Fold change /veh TMCC2 (11721928_a_at) / RFU IRGQ (11745062_a_at) / Fold change /veh IRGQ (11745062_a_at) / RFU FAM174B (11720279_a_at) / Fold change /veh FAM174B (11720279_a_at) / RFU TMPRSS4 (11748680_a_at) / Fold change /veh TMPRSS4 (11748680_a_at) / RFU FAM212B (11763350_a_at) / Fold change /veh FAM212B (11763350_a_at) / RFU PLEKHG5 (11743358_a_at) / Fold change /veh PLEKHG5 (11743358_a_at) / RFU ZSCAN30 (11745921_a_at) / Fold change /veh ZSCAN30 (11745921_a_at) / RFU CMKLR1 (11741424_a_at) / Fold change /veh CMKLR1 (11741424_a_at) / RFU LOC101060620 /// MAPK8IP1 (11723275_at) / Fold change /veh LOC101060620 /// MAPK8IP1 (11723275_at) / RFU SPTSSB (11747773_x_at) / Fold change /veh SPTSSB (11747773_x_at) / RFU PRSS12 (11739890_at) / Fold change /veh PRSS12 (11739890_at) / RFU BIN1 (11741810_x_at) / Fold change /veh BIN1 (11741810_x_at) / RFU WNT11 (11732464_a_at) / Fold change /veh WNT11 (11732464_a_at) / RFU C10orf10 (11716521_a_at) / Fold change /veh C10orf10 (11716521_a_at) / RFU C5orf56 (11738089_at) / Fold change /veh C5orf56 (11738089_at) / RFU CYB561 (11721691_x_at) / Fold change /veh CYB561 (11721691_x_at) / RFU ANKRD19P (11752326_a_at) / Fold change /veh ANKRD19P (11752326_a_at) / RFU OR2T12 /// OR2T33 /// OR2T8 (11738714_s_at) / Fold change /veh OR2T12 /// OR2T33 /// OR2T8 (11738714_s_at) / RFU VCAN (11748164_a_at) / Fold change /veh VCAN (11748164_a_at) / RFU JSRP1 (11732532_at) / Fold change /veh JSRP1 (11732532_at) / RFU KRTAP10-11 (11738290_x_at) / Fold change /veh KRTAP10-11 (11738290_x_at) / RFU MYO3A (11730013_a_at) / Fold change /veh MYO3A (11730013_a_at) / RFU EBF3 (11725865_a_at) / Fold change /veh EBF3 (11725865_a_at) / RFU CAMK2N1 (11719241_x_at) / Fold change /veh CAMK2N1 (11719241_x_at) / RFU C5orf56 (11738088_a_at) / Fold change /veh C5orf56 (11738088_a_at) / RFU OLFML3 (11715873_a_at) / Fold change /veh OLFML3 (11715873_a_at) / RFU LOC100653217 /// NTM (11731650_a_at) / Fold change /veh LOC100653217 /// NTM (11731650_a_at) / RFU MAPK11 (11762145_a_at) / Fold change /veh MAPK11 (11762145_a_at) / RFU FIZ1 (11724087_x_at) / Fold change /veh FIZ1 (11724087_x_at) / RFU OASL (11726364_x_at) / Fold change /veh OASL (11726364_x_at) / RFU SOX15 (11748057_x_at) / Fold change /veh SOX15 (11748057_x_at) / RFU CD79A (11719716_a_at) / Fold change /veh CD79A (11719716_a_at) / RFU HIST1H1D (11736915_at) / Fold change /veh HIST1H1D (11736915_at) / RFU CASKIN2 (11723855_a_at) / Fold change /veh CASKIN2 (11723855_a_at) / RFU LOC730098 (11760151_x_at) / Fold change /veh LOC730098 (11760151_x_at) / RFU OR4N2 (11742367_at) / Fold change /veh OR4N2 (11742367_at) / RFU PRRT2 (11749266_a_at) / Fold change /veh PRRT2 (11749266_a_at) / RFU SNX32 (11753110_a_at) / Fold change /veh SNX32 (11753110_a_at) / RFU CDHR5 (11726645_a_at) / Fold change /veh CDHR5 (11726645_a_at) / RFU RCAN1 (11760418_a_at) / Fold change /veh RCAN1 (11760418_a_at) / RFU FAM167A (11723789_a_at) / Fold change /veh FAM167A (11723789_a_at) / RFU FAM26E (11764081_at) / Fold change /veh FAM26E (11764081_at) / RFU ISYNA1 (11749810_s_at) / Fold change /veh ISYNA1 (11749810_s_at) / RFU ACY1 (11761880_at) / Fold change /veh ACY1 (11761880_at) / RFU 11764098_at / Fold change /veh 11764098_at / RFU SAMD14 (11745864_x_at) / Fold change /veh SAMD14 (11745864_x_at) / RFU NPB (11741838_a_at) / Fold change /veh NPB (11741838_a_at) / RFU TMPRSS6 (11731388_a_at) / Fold change /veh TMPRSS6 (11731388_a_at) / RFU KRTAP10-2 (11738614_at) / Fold change /veh KRTAP10-2 (11738614_at) / RFU ARHGAP8 /// PRR5-ARHGAP8 (11727945_x_at) / Fold change /veh ARHGAP8 /// PRR5-ARHGAP8 (11727945_x_at) / RFU KRTAP5-7 /// NADSYN1 (11734609_at) / Fold change /veh KRTAP5-7 /// NADSYN1 (11734609_at) / RFU RASL12 (11751679_a_at) / Fold change /veh RASL12 (11751679_a_at) / RFU CDKN2B (11736163_a_at) / Fold change /veh CDKN2B (11736163_a_at) / RFU PRF1 (11729649_at) / Fold change /veh PRF1 (11729649_at) / RFU, ZNF638 /// ZNF638-IT1 / Fold change vs veh, ZNF638 /// ZNF638-IT1 / RFU, PANK3 / Fold change vs veh, PANK3 / RFU, SH3YL1 / Fold change vs veh, SH3YL1 / RFU, ZEB2 / Fold change vs veh, ZEB2 / RFU, NRIP1 / Fold change vs veh, NRIP1 / RFU, PTTG1IP / Fold change vs veh, PTTG1IP / RFU, CAPN2 / Fold change vs veh, CAPN2 / RFU, MED14 / Fold change vs veh, MED14 / RFU, SNORA58 / Fold change vs veh, SNORA58 / RFU, C1orf63 / Fold change vs veh, C1orf63 / RFU, LRRFIP1 / Fold change vs veh, LRRFIP1 / RFU, NDUFAF7 / Fold change vs veh, NDUFAF7 / RFU, SLC12A2 / Fold change vs veh, SLC12A2 / RFU, IBTK / Fold change vs veh, IBTK / RFU, ESF1 / Fold change vs veh, ESF1 / Fold change vs veh, TMEM50B / RFU, TAOK1 / Fold change vs veh, TAOK1 / RFU, ACBD3 / Fold change vs veh, ACBD3 / RFU, TMA16 / Fold change vs veh, TMA16 / RFU, RWDD3 / Fold change vs veh, RWDD3 / RFU, BCAT1 / Fold change vs veh, BCAT1 / RFU, EDEM3 / Fold change vs veh, EDEM3 / RFU, TMEM33 / Fold change vs veh, TMEM33 / RFU, WDR75 / Fold change vs veh, WDR75 / RFU, AHCTF1 / Fold change vs veh, AHCTF1 / RFU, TFRC / Fold change vs veh, TFRC / RFU, ZDHHC17 / Fold change vs veh, ZDHHC17 / RFU, NOM1 / Fold change vs veh, NOM1 / RFU, ARL8B / Fold change vs veh, ARL8B / RFU, ZBTB11 / Fold change vs veh, ZBTB11 / RFU, TAMM41 / Fold change vs veh, TAMM41 / RFU, KIAA1704 /// LOC100996395 / Fold change vs veh, KIAA1704 /// LOC100996395 / RFU, ING1 / Fold change vs veh, ING1 / RFU, TRMT61B / Fold change vs veh, TRMT61B / RFU, FUBP3 / Fold change vs veh, FUBP3 / RFU, TP53 / Fold change vs veh, TP53 / RFU, TNKS2 / Fold change vs veh, TNKS2 / RFU, ZFP14 / Fold change vs veh, ZFP14 / RFU, ACTR2 / Fold change vs veh, ACTR2 / RFU, PPP3R1 / Fold change vs veh, PPP3R1 / RFU, PIK3R1 / Fold change vs veh, PIK3R1 / RFU, HNRNPA1 / Fold change vs veh, HNRNPA1 / RFU, RNF170 / Fold change vs veh, RNF170 / RFU, ZNF28 / Fold change vs veh, ZNF28 / RFU, RNGTT / Fold change vs veh, RNGTT / RFU, OGT / Fold change vs veh, OGT / RFU, BRD1 / Fold change vs veh, BRD1 / RFU, MARS / Fold change vs veh, MARS / RFU, ZNF655 / Fold change vs veh, ZNF655 / RFU, FAHD1 / Fold change vs veh, FAHD1 / RFU, BDP1 / Fold change vs veh, BDP1 / RFU, LRRCC1 / Fold change vs veh, LRRCC1 / RFU, ARID1A / Fold change vs veh, ARID1A / RFU, ZNF146 / Fold change vs veh, ZNF146 / RFU, ZNF330 / Fold change vs veh, ZNF330 / RFU, GPN3 / Fold change vs veh, GPN3 / RFU, C9orf123 / Fold change vs veh, C9orf123 / RFU, N4BP2L2 / Fold change vs veh, N4BP2L2 / RFU, ARFIP1 / Fold change vs veh, ARFIP1 / RFU, FAM179B / Fold change vs veh, FAM179B / RFU, BCL10 / Fold change vs veh, BCL10 / RFU, UHRF1BP1L / Fold change vs veh, UHRF1BP1L / RFU, BET1 / Fold change vs veh, BET1 / RFU, CNOT2 / Fold change vs veh, CNOT2 / RFU, ZNF268 / Fold change vs veh, ZNF268 / Fold change vs veh, ZNF507 / RFU, DGCR2 / Fold change vs veh, DGCR2 / RFU, WDSUB1 / Fold change vs veh, WDSUB1 / Fold change vs veh, HSP90B1 /// MIR3652 / RFU, ADSS / Fold change vs veh, ADSS / RFU, GK / Fold change vs veh, GK / RFU, ZNF148 / Fold change vs veh, ZNF148 / RFU, TAF9 / Fold change vs veh, TAF9 / RFU, SLC1A5 / Fold change vs veh, SLC1A5 / RFU, SLMO2 / Fold change vs veh, SLMO2 / RFU, ABCC4 / Fold change vs veh, ABCC4 / RFU, LOC101060439 /// RAP1B / Fold change vs veh, LOC101060439 /// RAP1B / RFU, RFX7 / Fold change vs veh, RFX7 / RFU, GTPBP10 / Fold change vs veh, GTPBP10 / RFU, CNEP1R1 / Fold change vs veh, CNEP1R1 / RFU, BIVM-ERCC5 /// ERCC5 / Fold change vs veh, BIVM-ERCC5 /// ERCC5 / RFU, ILF3 / Fold change vs veh, ILF3 / RFU 11762660_at / Fold change /veh 11762660_at / RFU VCAN (11757783_s_at) / Fold change /veh VCAN (11757783_s_at) / RFU DDX43 (11728927_at) / Fold change /veh DDX43 (11728927_at) / RFU KRT8 (11758188_x_at) / Fold change /veh KRT8 (11758188_x_at) / RFU NKD1 (11759106_at) / Fold change /veh NKD1 (11759106_at) / RFU SRD5A1 (11742802_a_at) / Fold change /veh SRD5A1 (11742802_a_at) / RFU TPSAB1 /// TPSB2 (11721975_s_at) / Fold change /veh TPSAB1 /// TPSB2 (11721975_s_at) / RFU GSTM3 (11746129_a_at) / Fold change /veh GSTM3 (11746129_a_at) / RFU IL23R (11737362_x_at) / Fold change /veh IL23R (11737362_x_at) / RFU TMEM51 (11727254_a_at) / Fold change /veh TMEM51 (11727254_a_at) / RFU PIWIL2 (11732686_x_at) / Fold change /veh PIWIL2 (11732686_x_at) / RFU ORM1 (11744905_x_at) / Fold change /veh ORM1 (11744905_x_at) / RFU CCDC152 (11743942_at) / Fold change /veh CCDC152 (11743942_at) / RFU ECM1 (11717891_a_at) / Fold change /veh ECM1 (11717891_a_at) / RFU IL23R (11748794_a_at) / Fold change /veh IL23R (11748794_a_at) / RFU TNFAIP8L3 (11732012_x_at) / Fold change /veh TNFAIP8L3 (11732012_x_at) / RFU MBOAT4 (11741988_at) / Fold change /veh MBOAT4 (11741988_at) / RFU 11764193_at / Fold change /veh 11764193_at / RFU TMEM53 (11763286_at) / Fold change /veh TMEM53 (11763286_at) / RFU MAGEB2 (11727129_at) / Fold change /veh MAGEB2 (11727129_at) / RFU TMEM200A (11744735_a_at) / Fold change /veh TMEM200A (11744735_a_at) / RFU CCDC152 (11751479_a_at) / Fold change /veh CCDC152 (11751479_a_at) / RFU FAM211A (11726209_a_at) / Fold change /veh FAM211A (11726209_a_at) / RFU RGS16 (11746705_a_at) / Fold change /veh RGS16 (11746705_a_at) / RFU VCAN (11755009_s_at) / Fold change /veh VCAN (11755009_s_at) / RFU RHOB (11743442_s_at) / Fold change /veh RHOB (11743442_s_at) / RFU RGS16 (11720943_a_at) / Fold change /veh RGS16 (11720943_a_at) / RFU RGS16 (11720944_at) / Fold change /veh RGS16 (11720944_at) / RFU, VPS4B / Fold change vs veh, VPS4B / RFU, CREB1 / Fold change vs veh, CREB1 / RFU, DNAJC13 / Fold change vs veh, DNAJC13 / RFU, GNAQ / Fold change vs veh, GNAQ / RFU, CDK5R1 / Fold change vs veh, CDK5R1 / RFU, ZRANB3 / Fold change vs veh, ZRANB3 / RFU, CUL4A / Fold change vs veh, CUL4A / RFU, CCNY / Fold change vs veh, CCNY / RFU, UFL1 / Fold change vs veh, UFL1 / RFU, COG3 / Fold change vs veh, COG3 / RFU, DIAPH2 / Fold change vs veh, DIAPH2 / RFU, SKA2 / Fold change vs veh, SKA2 / RFU, AFF3 / Fold change vs veh, AFF3 / RFU, LMF1 / Fold change vs veh, LMF1 / RFU, IPO11 / Fold change vs veh, IPO11 / RFU, DFFB / Fold change vs veh, DFFB / RFU, FOXP1 / Fold change vs veh, FOXP1 / RFU, CARD8 / Fold change vs veh, CARD8 / RFU, STRN3 / Fold change vs veh, STRN3 / RFU, ADK / Fold change vs veh, ADK / RFU, RASSF2 / Fold change vs veh, RASSF2 / RFU, WIPF1 / Fold change vs veh, WIPF1 / RFU, LARP1B / Fold change vs veh, LARP1B / RFU, RASA1 / Fold change vs veh, RASA1 / RFU, RB1 / Fold change vs veh, RB1 / RFU, PPFIA1 / Fold change vs veh, PPFIA1 / RFU, MAT2A / Fold change vs veh, MAT2A / RFU, CCT5 / Fold change vs veh, CCT5 / RFU, WDR92 / Fold change vs veh, WDR92 / RFU, CUX1 / Fold change vs veh, CUX1 / RFU, TTC7A / Fold change vs veh, TTC7A / RFU, TMEM135 / Fold change vs veh, TMEM135 / RFU, DEPTOR / Fold change vs veh, DEPTOR / RFU, CPM / Fold change vs veh, CPM / RFU, DNAJB6 / Fold change vs veh, DNAJB6 / RFU, CACNA2D3 / Fold change vs veh, CACNA2D3 / RFU, DTX4 / Fold change vs veh, DTX4 / RFU, TFCP2 / Fold change vs veh, TFCP2 / RFU, GMCL1 /// GMCL1P1 / Fold change vs veh, GMCL1 /// GMCL1P1 / RFU, AEBP2 / Fold change vs veh, AEBP2 / RFU, SNHG1 /// SNORD22 /// SNORD25 /// SNORD26 /// SNORD27 /// SNORD28 /// SNORD29 /// SNORD31 / Fold change vs veh, SNHG1 /// SNORD22 /// SNORD25 /// SNORD26 /// SNORD27 /// SNORD28 /// SNORD29 /// SNORD31 / Fold change (Aza/veh), C12orf56 (ProbeSet 11735607_a_at) / Fold change (ACY-1035/veh), C12orf56 (ProbeSet 11735607_a_at) / Fold change (Aza/veh), FGFR1OP (ProbeSet 11751329_s_at) / Fold change (ACY-1035/veh), FGFR1OP (ProbeSet 11751329_s_at) / Fold change (Aza/veh), VPS36 (ProbeSet 11739960_a_at) / Fold change (ACY-1035/veh), VPS36 (ProbeSet 11739960_a_at) / RFU SYPL1 (11715823_x_at) / Fold change /veh SYPL1 (11715823_x_at) / RFU IGFBP7 (11715501_s_at) / Fold change /veh IGFBP7 (11715501_s_at) / RFU REEP3 (11722064_at) / Fold change /veh REEP3 (11722064_at) / RFU IGLL1 (11728026_x_at) / Fold change /veh IGLL1 (11728026_x_at): dose or concentration left out as unconfirmed. The format is cell-based, human.

Consider `Nc1ccc(-c2cccs2)cc1NC(=O)c1ccc2c(c1)cc(C1CC1)n2CCN1CCOCC1` [ACY-1035], for which the “RFU, WDR75” value came out at 291.65 RFU.
